Laboratory results reported in patent US20230233500A1, “Gasdermin D (GSDMD) Succination for the Treatment of Inflammatory Disease” (University of Massachusetts, priority 2020, published 2023).
“Also recorded” adds a separate entry of the source. Counter-ions that a name gives are not always drawn.

Experiments:
[1] = system: GSDMD-deficient BMDMs (GSDME); assay: Cell death in GSDMD-deficient BMDMs; format: cell-based, mouse
Source text: FIGS. 3A-J. Fumarate targets GSDMD and Gasdermin E (GSDME). Kinetic cell death of WT and Gsdmd-BMDMs (A) or WT/GSDMD^−/− THP1 cells (B) treated as indicated. LDH and IL-1β release from WT and Gsdmd^−/− BMDMs (C-D). Immunoblot of GSDMD and GSDME in native and reduced cell lysates from BMDMs (E). Immunoblot of GSDME in streptavidin pulldown from clicked lysates (F). Representative Mass spectra of succinated GSDME (G-H). Immunoblot analysis of GSDMD and GSDME from WT and Gsdmcd^−/− BMDMs (I). A, B representative of three independent experiments. C, D, I pooled data from three independent experiments. E, F, J representative images from 3 independent experiments. ***, P<0.0001, […] (Two-way ANOVA). Error bars show means±SEM.
FIGS. 13A-B. Fumarate inhibits GSDMD and GSDME comparably. (A) Kinetic cell death data of WT (left-panel) and GSDMD−/− (right-panel) primary BMDMs with LPS for 2 hours, DMSO (vehicle) or fumarate (0-50 μM) followed by nigericin (10 μM) for 6 hours. (B) Immunoblot analysis of GSDMD, GSDME and -actin in cell lysates from WT and GSDMD−/− BMDMs treated as in (A).
(§1) Cells were plated, treated and incubated in phenol red free medium. Following treatment medium was collected and assessed for LDH release using the CytoTox96 non-radioactive cytotoxicity assay (Promega) as per manufacturer's instructions. Kinetic cell death assays were performed using SytoxOrange and the Biotek Cytation5.

[2] = target: T1, GSDMD (Mus musculus, UniProt Q9D8T2); assay: Tandem MS of GSDMD immunoprecipitated from treated BMDMs; format: cell-based; conditions: GSDMD immunoprecipitated from fumarate treated BMDMs
T1 construct: We also immunoprecipitated GSDMD from fumarate treated BMDMs; endogenous in cells; host or cells: primary mouse BMDMs
T1 sequence (Q9D8T2 1-487): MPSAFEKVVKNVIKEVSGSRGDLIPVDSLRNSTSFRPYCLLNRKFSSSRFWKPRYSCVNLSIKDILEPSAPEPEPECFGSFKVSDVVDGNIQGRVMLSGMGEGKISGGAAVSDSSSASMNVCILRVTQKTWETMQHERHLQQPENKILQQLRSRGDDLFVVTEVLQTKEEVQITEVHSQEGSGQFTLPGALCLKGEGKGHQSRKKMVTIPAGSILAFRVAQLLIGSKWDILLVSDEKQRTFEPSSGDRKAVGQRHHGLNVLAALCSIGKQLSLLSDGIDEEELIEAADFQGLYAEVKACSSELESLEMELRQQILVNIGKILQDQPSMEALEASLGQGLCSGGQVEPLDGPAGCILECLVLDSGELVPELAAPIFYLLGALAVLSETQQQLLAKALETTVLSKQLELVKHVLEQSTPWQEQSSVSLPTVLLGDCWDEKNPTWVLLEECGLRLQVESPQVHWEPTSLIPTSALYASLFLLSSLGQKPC

[3] = system: CD14+ monocytes; assay: LPS-Nig induced cell death and LDH release in primary CD14+ monocytes; format: cell-based, human; conditions: fumarate 25 μM
Experimental: FIGS. 6A-G. Fumarate inhibits pyroptosis in Human cells. (A-B) Representative images (A) and kinetic data (B) of SYTOX Orange and Hoechst-stained PMA-differentiated THP1 cells treated with LPS for 2 hours, DMSO (vehicle) or fumarate (25 μM) for 1 hour and nigericin (10 μM) for 6 hours. (C) LDH release from (A). (D-E) Kinetic cell death data of SYTOX Orange and Hoechst stained (D) or LDH assay of conditioned medium from primary CD14+ positive monocytes treated with LPS for 2 hours DMSO (vehicle) or fumarate (25 μM) for 1 hour and nigericin (10 μM) for 6 hours. (F) LC/MS quantification of fumarate in WT BMDMs treated with LPS for 2 hours, FHIN1 for 1 hour and nigericin for 1 hour. (G) Representative images of WT primary BMDMs stained with SYTOX Orange and Hoechst following treatment with LPS for 2 hours, DMSO (vehicle) or fumarate (25 μM) or FHIN1 (25 μM) for 1 hour and nigericin for a timecourse of 6 hours. A, B, D, G are representative of 3 independent experiments. C, E, F are pooled data from 3 independent experiments. ***, P<0.001, ****, P<0.00001 (Students t-test). Error bars show mean±SD (B, D) or SEM (C, E). Cells were plated, treated and incubated in phenol red free medium. Following treatment medium was collected and assessed for LDH release using the CytoTox96 non-radioactive cytotoxicity assay (Promega) as per manufacturer's instructions. […]

[4] = system: BMDMs; assay: Pyroptosis in BMDMs after transfected LPS, Salmonella infection or poly (dA:dT); format: cell-based, mouse
Experimental: FIGS. 5A-G. Fumarate inhibits pyroptosis. (A) SYTOX Orange and Hoechst stained WT BMDMs treated with LPS for 2 hours, DMSO (vehicle) or fumarate (25 μM) for 1 hour and nigericin for 6 hours. (B) LDH assay conditioned medium from WT BMDMs treated with LPS for 3 hours, nigericin for the indicated times and DMSO (vehicle) or fumarate (25 μM) 15 minutes after each nigericin (10 μM) timepoint. (C) Immunoblot analysis of GSDMD in BMDMs treated as in […]. (D-E) LDH (D) and immunoblot analysis of GSDMD and β-actin in lysates (E) from WT BMDMs treated with DMSO (vehicle) or fumarate ([…]) for 1 hour followed by salmonella infection (MOI 10) for 6 hours. (F-G) LDH (F) and immunoblot analysis of GSDMD and β-actin in lysates (G) from WT BMDMs primed with LPS for 2 hours, followed by treatment with fumarate (25 μM) transfection with Poly (dA:dT) (1 μg). A, C, E, G are representative of 3 independent experiments. B, D, F are pooled data from 3 independent experiments. ***, P<0.001, ****, P<0.00001 (Two-way ANOVA). Error bars show means±SEM.
as §1
Cells were primed with LPS (100 ng/ml) from Escherichia coli serotype EH100 (ra) TLRgrade for 3 h followed by stimulation with the inflammasome activator Nigericin ([…]) for 1 h. For noncanonical inflammasome activation, cells were primed with […] Pam3CSK4 (Invivogen) for 2 h, followed by transfection of LPS (2 μg/ml) using Lipofectamine 2000 for 16 hours.

COC(=O)/C=C/C(=O)OC [Fumarate, Dimethyl fumarate]
cell death (GSDMD-independent, GSDME-dependent) ([1]; GSDMD-deficient BMDMs, kinetic): inhibited cell death
GSDME processing / generation of GSDME-N ([1]; GSDMD-deficient cells, immunoblot): blocked
inhibition of GSDMD-driven versus GSDME-driven cell death ([1]; WT and GSDMD-/- BMDMs, fumarate 0-50 μM, nigericin 6 hours): comparably
2-monomethyl and 2-dimethyl succination sites of GSDMD in cells [2]: Cys^192; also recorded: Cys^57; also recorded: Cys^77
LPS-Nig induced LDH release [3]: blocked
LPS-Nig induced cell death ([3]; SYTOX Orange): blocked
inhibitory effect on pyroptosis after poly (dA:dT) ([4]; LPS primed 2 hours, fumarate 25 μM, LDH and GSDMD immunoblot): inhibitory effect
inhibitory effect on pyroptosis after Salmonella infection ([4]; fumarate 25 μM 1 hour, MOI 10, 6 hours, LDH and GSDMD immunoblot): inhibitory effect
inhibitory effect on pyroptosis after transfected LPS ([4]; noncanonical inflammasome): inhibitory effect
